The values below come from patent US10730872B2, “Pesticidally active heterocyclic derivatives with sulphur containing sustitutents” (SYNGENTA PARTICIPATIONS AG, priority 2015, dated 2020).

Data set [1] concerns Aedes aegypti. Nature of the data set: Aedes Aegypti (Yellow Fever Mosquito). In kind it is in vivo. The conditions noted are these: 200 ppm in ethanol, dry deposit in 12 well plates, adult females, after 48 h and/or 24 h. As to the method:
Test solutions, at an application rate of 200 ppm in ethanol, were applied to 12 well tissue culture plates. Once the deposits were dry, five, two to five day old adult female Aedes aegypti were added to each well, and sustained with a 10% sucrose solution in a cotton wool plug. Assessment of knockdown was made one hour after introduction, and mortality was assessed at 24 and 48 hours after introduction.

The test system of data set [2] is Tetranychus urticae. Nature of the data set: Tetranychus urticae (Two-Spotted Spider Mite): Feeding/Contact Activity. The class given is in vivo. As to conditions: foliar, 192 h, application rate of 200 ppm, sprayed bean leaf discs, mixed population (mobile stages), 8 days after infestation. As to the method: Bean leaf discs on agar in 24-well microtiter plates were sprayed with aqueous test solutions prepared from 10,000 ppm DMSO stock solutions. After drying the leaf discs were infested with a mite population of mixed ages. The samples were assessed for mortality on mixed population (mobile stages) 8 days after infestation.

Data set [3] has as its system Frankliniella occidentalis. Nature of the data set: Frankliniella occidentalis (Western Flower Thrips): Feeding/Contact Activity. In kind it is in vivo. The conditions noted are these: foliar, 168 h, application rate of 200 ppm, sprayed sunflower leaf discs, population of mixed ages, 7 days after infestation. On the procedure:
Sunflower leaf discs were placed on agar in 24-well microtiter plates and sprayed with aqueous test solutions prepared from 10,000 DMSO stock solutions. After drying the leaf discs were infested with a Frankliniella population of mixed ages. The samples were assessed for mortality 7 days after infestation.

In data set [4] the test system is Euschistus heros. Put plainly: Euschistus heros (Neotropical Brown Stink Bug). The class given is in vivo. The conditions noted are these: 120 h, application rate of 200 ppm, sprayed soybean leaves, N2 nymphs, 5 days after infestation, read-out: effect in at least one of the two categories (mortality or growth inhibition). As to the method: Soybean leaves on agar in 24-well microtiter plates were sprayed with aqueous test solutions prepared from 10,000 ppm DMSO stock solutions. After drying the leaves were infested with N2 nymphs. The samples were assessed for mortality and growth inhibition in comparison to untreated samples 5 days after infestation.

The test system of data set [5] is Plutella xylostella. Put plainly: Plutella xylostella (Diamond Back Moth). The conditions noted are these: 120 h, application rate of 200 ppm, artificial diet, L2 larvae, 5 days after infestation, read-out: effect in at least one of the two categories (mortality or growth inhibition). In kind it is in vivo. On the procedure:
24-well microtiter plates with artificial diet were treated with aqueous test solutions prepared from 10,000 ppm DMSO stock solutions by pipetting. After drying, the plates were infested with L2 larvae (10 to 15 per well). The samples were assessed for mortality and growth inhibition in comparison to untreated samples 5 days after infestation.

The test system of data set [6] is Myzus persicae. Put plainly: Myzus persicae (Green Peach Aphid): Feeding/Contact Activity. The conditions noted are these: foliar, 144 h, application rate of 200 ppm, sprayed sunflower leaf discs, aphid population of mixed ages, 6 days after infestation. In kind it is in vivo. As to the method:
Sunflower leaf discs were placed onto agar in a 24-well microtiter plate and sprayed with aqueous test solutions prepared from 10,000 ppm DMSO stock solutions. After drying, the leaf discs were infested with an aphid population of mixed ages. The samples were assessed for mortality 6 days after infestation.

In data set [7] the test system is Spodoptera littoralis. Put plainly: Spodoptera littoralis (Egyptian Cotton Leaf Worm), sprayed cotton leaf discs. In kind it is in vivo. The conditions noted are these: foliar, 72 h, application rate of 200 ppm, L1 larvae, 3 days after infestation. The gist of the method:
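Cotton leaf discs on agar sprayed with aqueous dilutions of 10,000 ppm DMSO stocks, dried, then infested with five L1 larvae. Mortality, anti-feeding and growth inhibition scored against untreated discs 3 days after infestation. Control recorded when any one category exceeds the untreated sample.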

Data set [8] has as its system Diabrotica balteata. Put plainly: Diabrotica balteata (Corn Root Worm). As to conditions: 96 h, application rate of 200 ppm, sprayed maize sprouts, L2 larvae, 4 days after infestation, read-out: effect in at least one of the two categories (mortality or growth inhibition). The class given is in vivo. On the procedure: Maize sprouts placed onto an agar layer in 24-well microtiter plates were treated with aqueous test solutions prepared from 10,000 ppm DMSO stock solutions by spraying. After drying, the plates were infested with L2 larvae (6 to 10 per well). The samples were assessed for mortality and growth inhibition in comparison to untreated samples 4 days after infestation.

Data set [9] relates to Myzus persicae. Put plainly: Myzus persicae (Green Peach Aphid). Intrinsic Activity. In kind it is in vivo. The conditions noted are these: 120 h, test rate of 12 ppm, mixed with sucrose solution, Parafilm, 5 days after infestation. On the procedure:
Test compounds prepared from 10,000 ppm DMSO stock solutions were applied by pipette into 24-well microtiter plates and mixed with sucrose solution. The plates were closed with a stretched Parafilm. A plastic stencil with 24 holes was placed onto the plate and infested pea seedlings were placed directly on the Parafilm. The infested plate was closed with a gel blotting paper and another plastic stencil and then turned upside down. The samples were assessed for mortality 5 days after infestation.

The test system of data set [10] is Spodoptera littoralis. Put plainly: Spodoptera littoralis (Egyptian Cotton Leaf Worm), uptake by lettuce roots from agar. In kind it is in vivo. The conditions noted are these: 144 h, test rate of 12.5 ppm, mixed with agar, absorbed by lettuce roots, Spodoptera eggs, 6 days after infestation, read-out: effect in at least one of the three categories (mortality, anti-feeding, or growth inhibition). The gist of the method:
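Compound from 10,000 ppm DMSO stock mixed into agar; lettuce seeds grew 7 days, taking compound up via roots into the lid plate. Cut leaves infested with Spodoptera eggs; mortality, anti-feedant effect and growth inhibition scored against untreated samples 6 days after infestation.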

For data set [11], the system named is Thrips tabaci. Put plainly: Thrips tabaci (Onion Thrips) Feeding/Contact Activity. The class given is in vivo. As to conditions: foliar, 144 h, application rate of 200 ppm, sprayed sunflower leaf discs, thrips population of mixed ages, 6 days after infestation. On the procedure:
Sunflower leaf discs were placed on agar in 24-well microtiter plates and sprayed with aqueous test solutions prepared from 10,000 ppm DMSO stock solutions. After drying the leaf discs were infested with a thrips population of mixed ages. The samples were assessed for mortality 6 days after infestation.

The subject of data set [12] is Bemisia tabaci. Nature of the data set: Bemisia tabaci (Cotton White Fly): Feeding/Contact Activity. The conditions noted are these: foliar, 144 h, application rate of 200 ppm, sprayed cotton leaf discs, adult white flies, 6 days after incubation. The class given is in vivo. On the procedure: Cotton leaf discs were placed on agar in 24-well microtiter plates and sprayed with aqueous test solutions prepared from 10,000 ppm DMSO stock solutions. After drying the leaf discs were infested with adult white flies. The samples were checked for mortality 6 days after incubation.

What is called pest or weed control is the degree to which the test organism was suppressed or injured, in per cent. The term mortality denotes the percentage killed. Read a low mortality as a weak lethal effect. On to `CCn1c(C(F)(F)F)cc2nc(-c3ncc(NC4CC4)cc3S(=O)(=O)CC)n(C)c2c1=O` [Compound A1], for which, in [1], the pest or weed control at 200 ppm is not below 80%. Moreover, the mortality at 200 ppm in data set [2], in [3] and in data set [6] was not below 80% throughout. For the same compound, the percent effect (mortality or growth inhibition) at 200 ppm in data set [4] and in data set [5] was not below 80% each time. In addition, in [7], the percent control (mortality, anti-feeding effect or growth inhibition) at 200 ppm is not below 80%. In data set [8], the effect mortality or growth inhibition at 200 ppm was not below 80%.
`CCSc1cc(NC(=O)C2CC2)cnc1-c1nc2cc(C(F)(F)F)n(CC)c(=O)c2n1C` [Compound A59, N-[6-[5-ethyl-3-methyl-4-oxo-6-(trifluoromethyl)imidazo[4,5-c]pyridin-2-yl]-5-ethylsulfanyl-3-pyridyl]cyclopropanecarboxamide] showed a mortality at 12 ppm in [9] not below 80%. The percent effect (mortality or growth inhibition) at 200 ppm in data set [5] was not below 80%. In data set [6], this compound showed a mortality at 200 ppm not below 80%. This compound registered a percent control (mortality, anti-feeding effect or growth inhibition) at 200 ppm in [7] not below 80%. The effect mortality or growth inhibition at 200 ppm in data set [8] was not below 80%.
The term melting point denotes the temperature of the solid-liquid transition. As for `CCn1c(C(F)(F)F)cc2nc(-c3ncc(N(C(=O)C4CC4)S(C)(=O)=O)cc3S(=O)(=O)CC)n(C)c2c1=O` [Compound A21, N-[6-[5-ethyl-3-methyl-4-oxo-6-(trifluoromethyl)imidazo[4,5-c]pyridin-2-yl]-5-ethylsulfonyl-3-pyridyl]-N-methylsulfonyl-cyclopropanecarboxamide], the melting point is 232 to 234 °C.
Take `CCS(=O)(=O)c1cc(Br)c(N)nc1-c1nc2cc(C(F)(F)F)n(C3CC3)c(=O)c2n1C` [Compound A44, 2-(6-amino-5-bromo-3-ethylsulfonyl-2-pyridyl)-5-cyclopropyl-3-methyl-6-(trifluoromethyl)imidazo[4,5-c]pyridin-4-one]: in [10], the percent effect (mortality, anti-feeding or growth inhibition) at 12.5 ppm is not below 80%. For the same compound, the mortality at 200 ppm in data set [11], in data set [6] and in [12] was not below 80% in each case. Moreover, the percent effect (mortality or growth inhibition) at 200 ppm in [4] and in data set [5] was not below 80% throughout. In [7], the percent control (mortality, anti-feeding effect or growth inhibition) at 200 ppm was not below 80%. In addition, the effect mortality or growth inhibition at 200 ppm in [8] is not below 80%.
Consider `CCS(=O)(=O)c1cc(Br)c(NC)nc1-c1nc2cc(C(F)(F)F)n(C3CC3)c(=O)c2n1C` [Compound A52, 2-[5-bromo-3-ethylsulfonyl-6-(methylamino)-2-pyridyl]-5-cyclopropyl-3-methyl-6-(trifluoromethyl)imidazo[4,5-c]pyridin-4-one], for which the percent effect (mortality, anti-feeding or growth inhibition) at 12.5 ppm in data set [10] is not below 80%. Besides, the mortality at 200 ppm in data set [11], in data set [6] and in data set [12] was not below 80% throughout. Moreover, the percent effect (mortality or growth inhibition) at 200 ppm in [4] and in [5] was not below 80% each time. The compound also registered a percent control (mortality, anti-feeding effect or growth inhibition) at 200 ppm in data set [7] not below 80%. Also, the effect mortality or growth inhibition at 200 ppm in data set [8] was not below 80%.
